Experimental data reported in article PMC9851200, “Multiparameter phenotypic screening for endogenous TFEB and TFE3 translocation identifies novel chemical series modulating lysosome function” (Autophagy, 2022).

Assays:
Type in all cases: binding
[1] = biological target: kinases (KINOMEscan panel) (Homo sapiens, UniProt Q13177); conditions: PAK2; NEW KINOMEscan
[2] = biological target: kinases (KINOMEscan panel) (Homo sapiens, UniProt P00533, L858R/T790M); conditions: NEW KINOMEscan
[3] = biological target: T1, kinases (KINOMEscan panel) (Homo sapiens, UniProt Q9NRH2); conditions: kinase SNRK; NEW KINOMEscan
T1 sequence (Q9NRH2 1-765): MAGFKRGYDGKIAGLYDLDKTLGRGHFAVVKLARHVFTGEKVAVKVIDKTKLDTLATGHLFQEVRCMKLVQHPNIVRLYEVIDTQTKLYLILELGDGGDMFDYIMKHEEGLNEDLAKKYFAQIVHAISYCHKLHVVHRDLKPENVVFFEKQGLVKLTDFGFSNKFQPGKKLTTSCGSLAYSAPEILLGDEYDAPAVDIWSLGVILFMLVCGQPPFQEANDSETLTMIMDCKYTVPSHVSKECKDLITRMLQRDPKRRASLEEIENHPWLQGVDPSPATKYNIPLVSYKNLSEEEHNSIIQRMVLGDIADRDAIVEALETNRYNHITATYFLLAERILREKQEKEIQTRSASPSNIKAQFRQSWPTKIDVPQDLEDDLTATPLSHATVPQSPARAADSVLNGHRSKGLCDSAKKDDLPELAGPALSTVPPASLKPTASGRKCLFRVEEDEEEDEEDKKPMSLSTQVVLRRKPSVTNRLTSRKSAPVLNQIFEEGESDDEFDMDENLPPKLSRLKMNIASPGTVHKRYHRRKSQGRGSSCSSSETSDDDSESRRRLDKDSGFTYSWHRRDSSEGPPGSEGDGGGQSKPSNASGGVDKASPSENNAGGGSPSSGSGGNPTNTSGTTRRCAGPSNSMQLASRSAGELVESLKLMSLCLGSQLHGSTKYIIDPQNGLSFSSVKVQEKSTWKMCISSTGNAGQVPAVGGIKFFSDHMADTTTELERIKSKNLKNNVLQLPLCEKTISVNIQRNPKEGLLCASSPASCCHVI

[4] = biological target: kinases (KINOMEscan panel) (Homo sapiens, UniProt Q9BYP7); conditions: NEW KINOMEscan
[5] = biological target: T2, kinases (KINOMEscan panel) (Homo sapiens, UniProt O00141); conditions: kinase SGK1; NEW KINOMEscan
T2 sequence (O00141 1-431): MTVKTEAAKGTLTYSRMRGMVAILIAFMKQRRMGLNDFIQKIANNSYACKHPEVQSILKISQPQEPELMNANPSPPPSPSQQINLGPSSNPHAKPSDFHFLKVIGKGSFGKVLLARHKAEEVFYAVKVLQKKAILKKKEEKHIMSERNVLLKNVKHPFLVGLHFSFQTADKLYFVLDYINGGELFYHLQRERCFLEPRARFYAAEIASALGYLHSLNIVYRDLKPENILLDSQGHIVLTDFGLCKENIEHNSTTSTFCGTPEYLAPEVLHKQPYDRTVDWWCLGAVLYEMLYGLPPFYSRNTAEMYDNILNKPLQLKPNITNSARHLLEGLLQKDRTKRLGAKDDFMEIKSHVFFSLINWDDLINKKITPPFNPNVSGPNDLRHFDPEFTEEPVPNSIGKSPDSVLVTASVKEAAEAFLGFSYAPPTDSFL

[6] = biological target: T3, kinases (KINOMEscan panel) (Homo sapiens, UniProt P29323); conditions: EPHB2; NEW KINOMEscan
T3 sequence (P29323 19-1055): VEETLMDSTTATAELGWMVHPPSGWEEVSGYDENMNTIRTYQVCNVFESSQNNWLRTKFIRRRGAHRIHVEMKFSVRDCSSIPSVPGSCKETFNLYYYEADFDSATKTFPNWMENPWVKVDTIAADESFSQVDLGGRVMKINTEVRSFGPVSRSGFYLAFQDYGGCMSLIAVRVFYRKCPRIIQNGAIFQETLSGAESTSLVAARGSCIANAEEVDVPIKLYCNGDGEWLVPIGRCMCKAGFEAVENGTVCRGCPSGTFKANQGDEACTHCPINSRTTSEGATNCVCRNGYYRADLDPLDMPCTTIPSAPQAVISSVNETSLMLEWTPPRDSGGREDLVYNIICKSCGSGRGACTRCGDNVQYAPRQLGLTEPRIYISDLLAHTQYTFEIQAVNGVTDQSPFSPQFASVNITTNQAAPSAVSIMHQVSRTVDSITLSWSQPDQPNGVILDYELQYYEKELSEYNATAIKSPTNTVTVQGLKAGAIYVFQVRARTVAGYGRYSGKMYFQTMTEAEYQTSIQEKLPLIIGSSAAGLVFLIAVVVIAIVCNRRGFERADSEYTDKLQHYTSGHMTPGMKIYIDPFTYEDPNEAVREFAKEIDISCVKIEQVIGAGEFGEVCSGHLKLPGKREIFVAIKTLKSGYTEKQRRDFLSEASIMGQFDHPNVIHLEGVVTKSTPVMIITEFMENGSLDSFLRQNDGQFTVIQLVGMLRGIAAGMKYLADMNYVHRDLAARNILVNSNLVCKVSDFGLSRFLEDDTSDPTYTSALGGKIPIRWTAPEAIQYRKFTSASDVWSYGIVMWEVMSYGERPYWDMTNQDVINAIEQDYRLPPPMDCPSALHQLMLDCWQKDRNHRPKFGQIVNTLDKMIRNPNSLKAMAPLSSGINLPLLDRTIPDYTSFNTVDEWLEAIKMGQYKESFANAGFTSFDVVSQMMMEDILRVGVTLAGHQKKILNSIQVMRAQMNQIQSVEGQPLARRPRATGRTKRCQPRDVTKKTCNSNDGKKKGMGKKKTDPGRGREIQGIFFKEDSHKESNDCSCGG

[7] = biological target: kinases (KINOMEscan panel) (Homo sapiens, UniProt Q16513); conditions: kinase PKN2; NEW KINOMEscan
[8] = biological target: kinases (KINOMEscan panel) (Homo sapiens, UniProt P49336); conditions: CDK8; NEW KINOMEscan
Sequence of kinases (KINOMEscan panel) (Homo sapiens, UniProt P49336) (P49336 whole entry): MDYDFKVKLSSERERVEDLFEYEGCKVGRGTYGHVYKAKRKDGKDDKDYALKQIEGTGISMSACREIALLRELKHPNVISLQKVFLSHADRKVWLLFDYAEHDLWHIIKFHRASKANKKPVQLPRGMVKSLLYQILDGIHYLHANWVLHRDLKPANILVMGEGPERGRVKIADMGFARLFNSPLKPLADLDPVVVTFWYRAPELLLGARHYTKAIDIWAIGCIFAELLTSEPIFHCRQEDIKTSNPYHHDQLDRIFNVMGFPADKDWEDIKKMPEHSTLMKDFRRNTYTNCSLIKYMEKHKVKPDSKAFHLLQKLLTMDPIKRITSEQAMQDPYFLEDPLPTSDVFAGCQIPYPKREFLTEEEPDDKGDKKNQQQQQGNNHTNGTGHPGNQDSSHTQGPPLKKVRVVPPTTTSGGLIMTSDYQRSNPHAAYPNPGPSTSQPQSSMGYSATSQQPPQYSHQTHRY

Sequence of kinases (KINOMEscan panel) (Homo sapiens, UniProt Q9BYP7) (Q9BYP7 whole entry): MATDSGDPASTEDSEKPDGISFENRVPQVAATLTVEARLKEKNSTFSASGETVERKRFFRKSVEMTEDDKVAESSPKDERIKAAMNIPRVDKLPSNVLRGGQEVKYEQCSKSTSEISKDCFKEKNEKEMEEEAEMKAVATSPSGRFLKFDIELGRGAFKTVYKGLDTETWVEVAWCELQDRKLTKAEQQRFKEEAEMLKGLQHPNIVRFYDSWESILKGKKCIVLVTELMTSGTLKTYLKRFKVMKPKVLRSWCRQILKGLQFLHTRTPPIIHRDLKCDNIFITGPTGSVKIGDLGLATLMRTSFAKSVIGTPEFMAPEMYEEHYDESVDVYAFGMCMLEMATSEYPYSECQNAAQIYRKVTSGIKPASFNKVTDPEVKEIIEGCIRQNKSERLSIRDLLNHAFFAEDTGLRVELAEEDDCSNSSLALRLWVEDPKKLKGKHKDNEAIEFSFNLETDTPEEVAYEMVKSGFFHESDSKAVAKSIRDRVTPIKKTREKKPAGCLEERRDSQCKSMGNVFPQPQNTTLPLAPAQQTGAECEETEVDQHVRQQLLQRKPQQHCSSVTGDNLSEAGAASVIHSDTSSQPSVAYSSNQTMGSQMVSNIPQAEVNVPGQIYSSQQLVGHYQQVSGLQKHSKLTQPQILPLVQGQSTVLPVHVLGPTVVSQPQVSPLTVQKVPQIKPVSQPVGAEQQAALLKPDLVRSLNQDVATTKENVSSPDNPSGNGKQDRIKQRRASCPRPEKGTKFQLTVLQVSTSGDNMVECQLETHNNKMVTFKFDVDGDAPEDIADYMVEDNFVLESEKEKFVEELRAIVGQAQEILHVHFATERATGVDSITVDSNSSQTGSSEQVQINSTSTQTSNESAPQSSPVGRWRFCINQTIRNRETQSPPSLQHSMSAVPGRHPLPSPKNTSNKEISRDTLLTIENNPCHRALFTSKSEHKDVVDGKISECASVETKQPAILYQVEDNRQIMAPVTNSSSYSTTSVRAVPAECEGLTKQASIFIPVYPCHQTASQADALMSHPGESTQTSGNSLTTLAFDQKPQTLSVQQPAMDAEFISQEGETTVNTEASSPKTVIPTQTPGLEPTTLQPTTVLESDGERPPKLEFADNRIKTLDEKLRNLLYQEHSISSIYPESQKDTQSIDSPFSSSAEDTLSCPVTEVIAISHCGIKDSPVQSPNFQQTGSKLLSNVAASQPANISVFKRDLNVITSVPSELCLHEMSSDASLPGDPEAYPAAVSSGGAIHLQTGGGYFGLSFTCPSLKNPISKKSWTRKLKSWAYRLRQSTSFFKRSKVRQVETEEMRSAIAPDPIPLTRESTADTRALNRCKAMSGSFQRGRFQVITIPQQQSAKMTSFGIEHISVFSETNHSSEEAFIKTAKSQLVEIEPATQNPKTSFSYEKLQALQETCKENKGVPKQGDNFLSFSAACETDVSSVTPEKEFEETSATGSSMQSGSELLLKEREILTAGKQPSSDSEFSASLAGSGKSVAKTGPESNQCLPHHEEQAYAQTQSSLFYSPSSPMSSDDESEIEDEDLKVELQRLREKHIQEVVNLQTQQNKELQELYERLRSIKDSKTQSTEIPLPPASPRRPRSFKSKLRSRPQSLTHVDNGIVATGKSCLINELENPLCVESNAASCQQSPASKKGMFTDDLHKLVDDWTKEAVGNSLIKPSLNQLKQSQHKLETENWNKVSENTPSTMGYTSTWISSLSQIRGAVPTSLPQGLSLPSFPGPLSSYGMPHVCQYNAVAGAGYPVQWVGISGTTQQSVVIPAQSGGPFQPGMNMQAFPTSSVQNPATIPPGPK
Sequence of kinases (KINOMEscan panel) (Homo sapiens, UniProt Q13177) (Q13177 whole entry): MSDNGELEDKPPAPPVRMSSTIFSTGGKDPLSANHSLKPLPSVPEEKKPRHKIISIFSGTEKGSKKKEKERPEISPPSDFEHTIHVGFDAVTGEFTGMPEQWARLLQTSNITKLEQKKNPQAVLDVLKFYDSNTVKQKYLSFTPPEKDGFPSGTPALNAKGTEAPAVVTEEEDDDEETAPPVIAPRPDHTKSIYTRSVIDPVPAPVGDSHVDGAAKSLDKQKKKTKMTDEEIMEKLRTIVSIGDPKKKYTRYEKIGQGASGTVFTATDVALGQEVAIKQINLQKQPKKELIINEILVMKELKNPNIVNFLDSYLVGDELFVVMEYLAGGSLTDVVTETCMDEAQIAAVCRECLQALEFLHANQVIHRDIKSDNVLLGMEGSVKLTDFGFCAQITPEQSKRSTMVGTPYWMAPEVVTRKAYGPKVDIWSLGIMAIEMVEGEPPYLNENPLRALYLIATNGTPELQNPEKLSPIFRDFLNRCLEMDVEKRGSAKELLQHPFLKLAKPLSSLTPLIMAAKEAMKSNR
Sequence of kinases (KINOMEscan panel) (Homo sapiens, UniProt Q16513) (Q16513 whole entry): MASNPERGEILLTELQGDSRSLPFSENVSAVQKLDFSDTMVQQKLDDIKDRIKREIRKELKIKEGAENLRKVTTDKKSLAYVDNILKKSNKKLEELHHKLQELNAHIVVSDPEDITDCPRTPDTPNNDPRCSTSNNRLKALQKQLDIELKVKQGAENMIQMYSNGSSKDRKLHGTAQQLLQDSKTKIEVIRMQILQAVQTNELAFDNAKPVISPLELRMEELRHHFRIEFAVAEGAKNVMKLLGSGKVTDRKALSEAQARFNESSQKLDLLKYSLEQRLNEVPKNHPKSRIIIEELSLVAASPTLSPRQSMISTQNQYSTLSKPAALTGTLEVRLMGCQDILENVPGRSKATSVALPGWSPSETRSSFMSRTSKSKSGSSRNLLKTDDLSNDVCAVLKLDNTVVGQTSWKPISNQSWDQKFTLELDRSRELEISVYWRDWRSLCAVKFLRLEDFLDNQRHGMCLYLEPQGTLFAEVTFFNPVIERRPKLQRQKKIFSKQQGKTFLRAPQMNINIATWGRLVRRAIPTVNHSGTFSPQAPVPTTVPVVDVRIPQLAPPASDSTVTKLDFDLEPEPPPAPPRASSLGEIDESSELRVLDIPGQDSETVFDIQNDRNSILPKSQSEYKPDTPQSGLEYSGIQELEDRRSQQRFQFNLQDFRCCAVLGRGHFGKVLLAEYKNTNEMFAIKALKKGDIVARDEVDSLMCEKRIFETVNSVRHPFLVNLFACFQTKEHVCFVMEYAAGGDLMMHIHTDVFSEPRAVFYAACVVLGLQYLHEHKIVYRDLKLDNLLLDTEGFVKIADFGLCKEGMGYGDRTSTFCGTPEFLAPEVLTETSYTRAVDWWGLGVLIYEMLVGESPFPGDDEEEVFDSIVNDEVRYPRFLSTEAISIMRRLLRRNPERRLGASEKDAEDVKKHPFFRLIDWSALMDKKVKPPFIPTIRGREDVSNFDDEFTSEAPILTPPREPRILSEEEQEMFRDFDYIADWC
Sequence of kinases (KINOMEscan panel) (Homo sapiens, UniProt P00533, L858R/T790M) (P00533 25-1210 T790M/L858R): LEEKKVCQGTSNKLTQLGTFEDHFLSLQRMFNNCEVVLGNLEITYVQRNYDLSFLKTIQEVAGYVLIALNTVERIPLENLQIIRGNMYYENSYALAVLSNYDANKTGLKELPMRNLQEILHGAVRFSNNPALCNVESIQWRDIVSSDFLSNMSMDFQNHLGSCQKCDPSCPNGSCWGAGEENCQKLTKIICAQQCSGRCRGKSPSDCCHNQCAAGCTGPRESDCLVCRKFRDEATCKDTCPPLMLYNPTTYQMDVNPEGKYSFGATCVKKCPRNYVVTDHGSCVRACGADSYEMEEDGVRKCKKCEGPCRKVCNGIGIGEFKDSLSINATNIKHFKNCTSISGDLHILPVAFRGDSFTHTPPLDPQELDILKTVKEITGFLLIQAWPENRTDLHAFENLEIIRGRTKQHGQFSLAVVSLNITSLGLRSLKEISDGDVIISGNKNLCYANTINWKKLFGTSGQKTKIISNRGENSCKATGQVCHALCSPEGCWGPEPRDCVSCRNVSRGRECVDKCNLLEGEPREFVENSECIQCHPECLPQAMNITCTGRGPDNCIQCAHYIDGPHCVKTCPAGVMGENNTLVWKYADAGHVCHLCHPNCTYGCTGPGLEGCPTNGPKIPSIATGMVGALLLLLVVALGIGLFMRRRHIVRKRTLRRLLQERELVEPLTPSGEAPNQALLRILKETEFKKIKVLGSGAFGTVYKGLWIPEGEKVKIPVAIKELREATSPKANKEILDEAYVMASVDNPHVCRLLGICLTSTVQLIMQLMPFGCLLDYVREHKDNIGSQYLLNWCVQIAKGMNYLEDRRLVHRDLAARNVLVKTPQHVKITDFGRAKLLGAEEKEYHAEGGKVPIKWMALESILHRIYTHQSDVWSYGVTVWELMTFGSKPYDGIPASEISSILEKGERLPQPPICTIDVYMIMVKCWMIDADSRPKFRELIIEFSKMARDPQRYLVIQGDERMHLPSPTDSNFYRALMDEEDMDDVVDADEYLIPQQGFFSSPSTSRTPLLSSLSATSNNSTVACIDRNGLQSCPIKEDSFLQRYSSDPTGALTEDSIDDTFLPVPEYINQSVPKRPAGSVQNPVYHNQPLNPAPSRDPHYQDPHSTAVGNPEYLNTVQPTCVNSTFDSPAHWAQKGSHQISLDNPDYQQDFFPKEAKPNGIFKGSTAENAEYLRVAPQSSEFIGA

Compound | KINOMEscan PAK2 [1] | KINOMEscan EGFR(L858R,T790M) [2] | KINOMEscan SNRK [3] | KINOMEscan WNK3 [4] | KINOMEscan SGK1 [5] | KINOMEscan EPHB2 [6] | KINOMEscan PKN2 [7] | KINOMEscan CDK8 [8]
Cc1cccc(-c2nc(Nc3ccc4nn(C)cc4c3)c3ccccc3n2)n1 [NK167] | 0 | 0 | 6 | 0 | 0 | 12 | 0 | 19
Cc1cccc(-c2nc(N(C)c3ccc4ncsc4c3)c3ccccc3n2)n1 [NK-161] | 0 | 10 | 7 | 28 | 14 | 15 | 0 | 12
